# Source: ChEMBL document CHEMBL1201862, “PubChem BioAssay data set” (2004)
# Activity calls are given as the source filed them.
# Experiments:
# [1] = biological target: T1, Mannose-6-phosphate isomerase (Homo sapiens, UniProt P34949); assay: MPI inhibition at elevated mannose 6-phosphate – biochemical, fluorescence intensity, high mannose 6-phosphate, primary screen (AID 1220)
# T1 sequence (P34949 whole entry): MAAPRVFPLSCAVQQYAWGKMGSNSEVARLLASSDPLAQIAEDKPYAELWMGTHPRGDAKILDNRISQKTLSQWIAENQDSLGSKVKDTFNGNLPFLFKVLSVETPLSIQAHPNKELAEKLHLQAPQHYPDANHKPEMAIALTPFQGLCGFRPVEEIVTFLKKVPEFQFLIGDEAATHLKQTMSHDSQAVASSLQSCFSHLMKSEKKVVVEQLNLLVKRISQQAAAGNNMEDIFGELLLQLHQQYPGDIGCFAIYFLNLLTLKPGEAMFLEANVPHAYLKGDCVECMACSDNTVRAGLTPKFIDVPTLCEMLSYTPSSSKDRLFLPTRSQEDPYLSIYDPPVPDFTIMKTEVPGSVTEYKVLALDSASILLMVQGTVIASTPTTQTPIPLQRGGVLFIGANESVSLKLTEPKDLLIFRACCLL
# Large T antigen = Large T antigen (Simian virus 40, UniProt P03070); type: functional, Betapolyomavirus macacae;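 further: Confirmatory-stage PubChem screen for compounds that inhibit SV40 T antigen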
# [2] = biological target: Glutathione-S-transferase (Schistosoma japonicum, UniProt Q26513); assay: GST-antibody interaction or FRET quenching – biochemical, TR-FRET, artefact control for Vif-APOBEC3G degradation inhibitor project, dose response (AID 1117362); type: functional
# Glutathione-S-transferase, sequence (Q26513 whole entry): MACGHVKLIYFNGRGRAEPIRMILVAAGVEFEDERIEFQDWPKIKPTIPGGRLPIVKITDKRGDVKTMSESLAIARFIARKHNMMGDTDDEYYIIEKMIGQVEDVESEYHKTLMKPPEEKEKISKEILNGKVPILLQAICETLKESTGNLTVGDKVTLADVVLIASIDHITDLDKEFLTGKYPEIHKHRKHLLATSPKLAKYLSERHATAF
# Large T antigen, sequence (P03070 whole entry): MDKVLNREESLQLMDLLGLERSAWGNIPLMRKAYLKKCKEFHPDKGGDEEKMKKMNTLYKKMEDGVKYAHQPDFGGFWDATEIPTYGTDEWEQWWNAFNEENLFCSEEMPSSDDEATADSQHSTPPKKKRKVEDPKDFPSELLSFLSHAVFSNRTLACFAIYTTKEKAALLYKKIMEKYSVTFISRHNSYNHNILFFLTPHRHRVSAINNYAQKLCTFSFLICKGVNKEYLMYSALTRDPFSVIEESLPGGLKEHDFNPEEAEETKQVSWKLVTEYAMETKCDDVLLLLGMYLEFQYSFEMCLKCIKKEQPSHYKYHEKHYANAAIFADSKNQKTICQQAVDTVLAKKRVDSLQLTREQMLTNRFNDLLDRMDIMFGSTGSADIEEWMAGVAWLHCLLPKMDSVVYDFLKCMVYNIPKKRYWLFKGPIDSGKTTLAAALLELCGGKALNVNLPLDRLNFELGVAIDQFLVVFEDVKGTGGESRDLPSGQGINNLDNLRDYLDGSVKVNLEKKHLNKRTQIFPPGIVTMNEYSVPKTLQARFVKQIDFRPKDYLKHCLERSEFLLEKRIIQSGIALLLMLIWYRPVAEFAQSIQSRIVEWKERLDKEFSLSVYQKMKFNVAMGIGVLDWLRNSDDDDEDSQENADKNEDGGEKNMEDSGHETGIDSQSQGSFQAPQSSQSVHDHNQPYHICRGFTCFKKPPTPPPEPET
compound,measurement,setting,value
CN(C(=S)Nc1cccnc1)c1ccc(O)cc1,IC50,[1],> 50 µM (not active)
same,IC50,Large T antigen,58.4 µM (active)
same,IC50,[2],> 100 µM (active)
